Experimental data as given in patent US11028058B2, “Heterocyclic compounds as adenosine antagonists” (NUVATION BIO INC., priority 2017, dated 2021).
pIC50: −log10 of the molar value. Like-named read-outs stand apart in the source and are kept apart here.

Legend:
[1] = target: human adenosine A2A membrane preparation (Homo sapiens (Human), UniProt P29274); assay: Adenosine A2A receptor radioligand binding assay (SPA beads, 3H-SCH 58261, 384 plate); details: for pIC50: Table B1-2; for inhibition at 3 µM: read-out: A2a binding % inh @ 3000 nM; for inhibition at 0.01 µM: read-out: A2a binding % inh @ 10 nM; for inhibition at 0.1 µM: read-out: A2a binding % inh @ 100 nM; for inhibition at 1 µM: read-out: A2a binding % inh @ 1000 nM; for inhibition at 0.001 µM: read-out: A2a binding % inh @ 1 nM
Procedure: For the A2A adenosine receptor radioligand binding assay, the following modifications were made to the general protocol. GF/C filters (Perkin Elmer, 6005174), presoaked in 0.01% Brij for 2 h at room temperature were used. Filters were washed six times with 0.5 mL of ice-cold washing buffer (50 mM Tris pH 7.4) and 50 μL of Microscint 20 (Packard) was added in each well. The plates were then incubated for 15 min on an orbital shaker and then counted with a TopCount™ for 1 min/well. Another radioligand binding assay was used to evaluate the binding affinity for the adenosine A2A receptor assay was performed in duplicate in the wells of a 384 plate. Assay buffer contained DPBS 500 mM, MgCl2 0.1 mM, and 1% DMSO. Membrane-bead suspension was prepared by mixing 25.98 μL of human adenosine A2A membrane preparation (Perkin Elmer, RBHA2AM400UA) at 33.4 μg/mL, 28 μL of ADA at 20 μg/mL, and 932 μL of SPA beads at 3.33 mg/mL) and incubated the mixture for 20 min at room temperature. Mixed 20 μL of radiotracer (^3H-SCH 58261) at 15 nM to each well containing test articles at various concentrations and centrifuge the plate at 1000 rpm for 1 minute. Added 30 μL of the membraine-bead suspension to each well. Sealed the plates and incubated for 1 hr at room temperature with vigorous mixing on a plate mixer. Plates were read on Microbeta^2 (Perkin Elmer, 2450-0010).

[2] = target: HEK-293 cells expressing human recombinant adenosine A2A receptor (Homo sapiens (Human), UniProt P29274); assay: cAMP assay, Assay 2 (Eu-cAMP tracer / ULight-anti-cAMP); format: cell-based
Procedure: The functional activity of compounds was tested using one of the two assays to detect the present of cAMP. Activation of G-protein coupled receptors (such as A2A) results in activation of adenylcyclase which converts ATP into cAMP which is used as a downstream signaling molecule. Therefore, molecules which act as GPCR (or specifically A2A receptor) antagonists cause a decrease in intracellular cAMP concentration.
Both assays used HEK-293 cells expressing human recombinant adenosine A2A receptor were grown prior to the test in media without antibiotic.
Assay 2 (Table B2-2): 100 nL of test articles at 100× of final concentration were transferred to assay plate by Echo. Cells were washed twice with 5 mL of PBS […]. After aspirating the PBS and adding 1.5 mL versine, cells were incubated at 37° C. for 2-5 min. After centrifugation, 4 mL of medium was added and adjusted cell density to 5,000 cells/well with Stimulation Buffer. 10 μL of cells were aliquoted to the assay plate, centrifuged at 1000 rpm for 1 minute, and incubated for 60 minutes at room temperature. 5 μL 4×Eu-cAMP tracer solution and 5 μL 4×Ulight™-anti-cAMP solution were added to assay plate, followed by centrifugation and 60-minute incubation at room temperature. Plates were read on EnVision.

[3] = HEK293, read-out: A2a cAMP % inh @ 100 nM
[4] = HEK293, 100 nM, Assay 2, read-out: A2a cAMP % inh @ 100 nM

Chain of human adenosine A2A membrane preparation (P29274 whole entry): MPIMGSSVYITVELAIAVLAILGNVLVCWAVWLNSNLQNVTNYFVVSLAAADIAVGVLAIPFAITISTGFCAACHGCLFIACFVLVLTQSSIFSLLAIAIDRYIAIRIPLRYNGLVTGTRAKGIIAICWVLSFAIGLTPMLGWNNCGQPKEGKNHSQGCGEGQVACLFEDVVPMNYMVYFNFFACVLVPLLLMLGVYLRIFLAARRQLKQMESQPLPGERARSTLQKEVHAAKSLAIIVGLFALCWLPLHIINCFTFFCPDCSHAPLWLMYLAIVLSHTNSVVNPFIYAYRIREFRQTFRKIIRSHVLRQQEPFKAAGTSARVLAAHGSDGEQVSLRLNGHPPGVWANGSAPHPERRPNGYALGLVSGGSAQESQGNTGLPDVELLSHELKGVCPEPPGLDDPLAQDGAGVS
Chain of HEK-293 cells expressing human recombinant adenosine A2A receptor (P29274 whole entry): as above

Structure (SMILES) | inhibition at 3 µM [1] [%] | inhibition at 0.1 µM [2, 4] [%] | further results
Nc1cnc(-c2cc(Cl)c3ncccc3c2)c(-n2ccccc2=O)n1 [Compound 1.308, 1-(6-amino-3-(8-chloroquinolin-6-yl)pyrazin-2-yl)pyridin-2(1H)-one] | – | – | pIC50 [1]: < 5.00; pIC50 ([2]; Assay 2): < 5.00
Cn1ccc(-c2nc(N)c(C#N)nc2-c2cc(Cl)c3ncccc3c2)n1 [Compound 1.309, 3-amino-6-(8-chloroquinolin-6-yl)-5-(1-methyl-1H-pyrazol-3-yl)pyrazine-2-carbonitrile] | – | – | pIC50 [1]: 8.80; pIC50 ([2]; Assay 2): 7.88
Cn1ccc(-c2nc(N)cnc2-c2ccc3c(=O)[nH]ccc3c2)n1 [Compound 1.315, 6-(5-amino-3-(1-methyl-1H-pyrazol-3-yl)pyrazin-2-yl)isoquinolin-1-ol] | – | – | pIC50 [1]: 7.00; pIC50 ([2]; Assay 2): 5.85
Cc1ncc(-c2nc(N)cnc2-c2cc(Cl)c3ncccc3c2)s1 [Compound 1.318, 5-(8-chloroquinolin-6-yl)-6-(2-methylthiazol-5-yl)pyrazin-2-amine] | – | – | pIC50 [1]: 8.03; pIC50 ([2]; Assay 2): 6.70
Nc1cnc(-c2ccc3ncccc3c2)c(-c2ccccn2)n1 [Compound No. 1.25, 6-(pyridin-2-yl)-5-(quinolin-6-yl)pyrazin-2-amine] | 48 | – | inhibition at 0.1 µM [2, 3]: 6%
Nc1cnc(-c2ccc3ncoc3c2)c(-c2ccccc2)n1 [Compound No. 1.35, 5-(benzo[d]oxazol-6-yl)-6-phenylpyrazin-2-amine] | 64 | 22 | –
Nc1cnc(-c2ccc3ncsc3c2)c(-c2ccccc2)n1 [Compound No. 1.36, 5-(benzo[d]thiazol-6-yl)-6-phenylpyrazin-2-amine] | 81 | 77 | –
Cc1ccc(-c2nc(N)cnc2-c2cc(Cl)c3[nH]cnc3c2)o1 [Compound No. 1.45, 5-(7-chloro-1H-benzimidazol-5-yl)-6-(5-methylfuran-2-yl)pyrazin-2-amine] | 91 | – | inhibition at 0.1 µM [2, 3]: 100%
Nc1cnc(-c2ccc3ccccc3c2)c(-c2ccccc2)n1 [Compound No. 1.185, 5-(naphthalen-2-yl)-6-phenylpyrazin-2-amine] | 20 | 9 | –
Nc1cnc(-c2ccc3c(c2)CCCN3)c(-c2ccccc2)n1 [Compound No. 1.186, 6-phenyl-5-(1,2,3,4-tetrahydroquinolin-6-yl)pyrazin-2-amine] | 30 | 12 | –
N#Cc1nc(-c2ccc3ncsc3c2)c(-c2ccccc2)nc1N [Compound No. 1.192, 3-amino-6-(benzo[d]thiazol-6-yl)-5-phenylpyrazine-2-carbonitrile] | 89 | 93 | –
N#Cc1nc(-c2ccc3ncoc3c2)c(-c2ccccc2)nc1N [Compound No. 1.193, 3-amino-6-(benzo[d]oxazol-6-yl)-5-phenylpyrazine-2-carbonitrile] | 83 | 87 | –
Cc1ccc(-c2nc(N)cnc2-c2ccc3ncccc3c2)s1 [Compound No. 1.210, 6-(5-methylthiophen-2-yl)-5-(quinolin-6-yl)pyrazin-2-amine] | 100 | 100 | –
Nc1nc(-c2ccccc2)c(-c2ccc3ncccc3c2)nc1C(=O)O [Compound No. 1.238, 3-amino-5-phenyl-6-(quinolin-6-yl) pyrazine-2-carboxylic acid] | 11 | 7 | –
Nc1nc(-c2ccccc2)c(-c2ccc3ncccc3c2)nc1O [Compound No. 1.241, 3-amino-5-phenyl-6-(quinolin-6-yl)pyrazin-2-ol] | 86 | 80 | –
Nc1cnc(-c2ccc3[nH]ncc3c2)c(-c2ccccc2)n1 [Compound No. 1.270, 5-(1H-indazol-5-yl)-6-phenylpyrazin-2-amine] | 100 | 100 | –
Cc1ccn(-c2nc(N)cnc2-c2cc(Cl)c3ncccc3c2)n1 [Compound No. 1.271, 5-(8-chloroquinolin-6-yl)-6-(3-methyl-1H-pyrazol-1-yl)pyrazin-2-amine] | – | – | pIC50 [1]: 8.68; pIC50 ([2]; Assay 2): 7.30
NC(=O)c1nc(-c2ccc3ncccc3c2)c(-c2ccccc2)nc1N [Compound No. 1.272, 3-amino-5-phenyl-6-(quinolin-6-yl)pyrazine-2-carboxamide] | 80 | 96 | –
Cc1cccc(CNC(=O)c2nc(-c3ccc4ncccc4c3)c(-c3ccccc3)nc2N)n1 [Compound No. 1.273, 3-amino-N-((6-methylpyridin-2-yl)methyl)-5-phenyl-6-(quinolin-6-yl)pyrazine-2-carboxamide] | 100 | – | pIC50 ([2]; Assay 2): 7.92
N#Cc1nc(-c2ccc3[nH]ncc3c2)c(-c2ccccc2)nc1N [Compound No. 1.274, 3-amino-6-(1H-indazol-5-yl)-5-phenylpyrazine-2-carbonitrile] | 80 | 60 | –
Nc1nc(-c2ccccc2)c(-c2ccc3ncccc3c2)nc1N1CCOCC1 [Compound No. 1.275, 3-morpholino-6-phenyl-5-(quinolin-6-yl)pyrazin-2-amine] | 11 | 0 | –
CN1CCN(c2nc(-c3ccc4ncccc4c3)c(-c3ccccc3)nc2N)CC1 [Compound No. 1.276] | 24 | 0 | –
N#Cc1nc(-c2cc(Cl)c3[nH]cnc3c2)c(-c2ccccc2)nc1N [Compound No. 1.277, 3-amino-6-(7-chloro-1H-benzimidazol-5-yl)-5-phenylpyrazine-2-carbonitrile] | 83 | 44 | –
Nc1cnc(-c2cc(Cl)c3ncccc3c2)c(-c2cc3ccccc3o2)n1 [Compound No. 1.278] | 95 | – | pIC50 ([2]; Assay 2): 6.52
Nc1cnc(-c2ccc3ncccc3c2)c(-c2nccs2)n1 [Compound No. 1.279, 5-(quinolin-6-yl)-6-(1,3-thiazol-2-yl)pyrazin-2-amine] | 58 | 9 | –
Cc1ccn(-c2nc(N)cnc2-c2ccc3ncccc3c2)n1 [Compound No. 1.280] | 75 | 51 | –
Cn1ccc(-c2nc(N)cnc2-c2ccc3ncccc3c2)n1 [Compound No. 1.285, 6-(1-methyl-1H-pyrazol-3-yl)-5-(quinolin-6-yl)pyrazin-2-amine] | – | 34 | inhibition at 0.01 µM [1]: 56%; inhibition at 0.1 µM [1]: 76%; inhibition at 1 µM [1]: 90%
Cc1ccn(-c2nc(N)cnc2-c2ccc3ncsc3c2)n1 [Compound No. 1.286, 5-(benzo[d]thiazol-6-yl)-6-(3-methyl-1H-pyrazol-1-yl)pyrazin-2-amine] | – | 20 | inhibition at 0.001 µM [1]: 40%; inhibition at 0.01 µM [1]: 87%; inhibition at 0.1 µM [1]: 96%; inhibition at 1 µM [1]: 86%
Cc1ccn(-c2nc(N)cnc2-c2ccc3[nH]ncc3c2)n1 [Compound No. 1.287, 5-(1H-indazol-5-yl)-6-(3-methyl-1H-pyrazol-1-yl)pyrazin-2-amine] | – | 16 | inhibition at 0.001 µM [1]: 42%; inhibition at 0.01 µM [1]: 77%; inhibition at 0.1 µM [1]: 90%; inhibition at 1 µM [1]: 80%
